The record followed here is ChEMBL document CHEMBL1143487, “Solid support synthesis of 6-aryl-2-substituted pyrimidin-4-yl phenols as anti-infective agents” (2005).

For orientation: MIC means the least concentration at which growth counts as inhibited.

SMILES strings stand for the structures. Converted amounts (≈) assume the structure as drawn. The source made the active and inactive calls. The rule behind the calls is not given here.

One test relates to Plasmodium falciparum. The test is described as follows: Minimum inhibitory concentration against Plasmodium falciparum. It is filed as functional.
The test system of test [1] is Mycobacterium tuberculosis. As to the kind of experiment: Minimum inhibitory concentration against Mycobacterium tuberculosis. It is filed as functional.
Test [2] concerns Mycobacterium tuberculosis. As to the kind of experiment: Minimum inhibitory concentration against Mycobacterium tuberculosis; - = inactive. It is filed as functional, organism-based.

Consider `COc1ccc(-c2cc(-c3ccc(O)cc3)nc(N3CCCCC3)n2)cc1OC`, for which the MIC stood at 1 µg/mL (≈ 2.55 µM) in the test on Plasmodium falciparum and 25 µg/mL (≈ 63.9 µM) in test [1].

Consider `Cc1ccc(-c2cc(-c3ccc(O)cc3)nc(N3CCN(C)CC3)n2)cc1`, for which the minimum inhibitory concentration (MIC) was found to be 1 µg/mL (≈ 2.77 µM) against Plasmodium falciparum and 25 µg/mL (≈ 69.4 µM) in test [1].

Turning to `Nc1nc(-c2ccccc2)cc(-c2ccc(O)cc2)n1`, inhibition of growth against Plasmodium falciparum (MIC) required 10 µg/mL (≈ 38 µM). For the same molecule, the MIC result in test [2] is “inactive”.

For the molecule `COc1ccc(OC)c(-c2cc(-c3ccc(O)cc3)nc(N3CCCCC3)n2)c1`, the figures for the minimal inhibitory concentration (MIC) (in the test with Plasmodium falciparum; in test [1]) were 1 µg/mL (≈ 2.55 µM) and 25 µg/mL (≈ 63.9 µM), respectively.

Take `COc1ccc(OC)c(-c2cc(-c3ccc(O)cc3)nc(N3CCCC3)n2)c1`: the MIC in the test on Plasmodium falciparum came out at 1 µg/mL (≈ 2.65 µM); in test [1], 25 µg/mL (≈ 66.2 µM).

In the test with Plasmodium falciparum, `COc1ccc(-c2cc(-c3ccc(O)cc3)nc(N)n2)cc1` gave an MIC of 50 µg/mL (≈ 170 µM). For the same molecule, in test [2], the MIC result is “inactive”.

With `COc1ccc(-c2cc(-c3ccc(O)cc3)nc(N3CCCC3)n2)cc1OC`, the values for the minimum inhibitory concentration (MIC) (in the test on Plasmodium falciparum; in test [1]) were 1 µg/mL (≈ 2.65 µM) and 25 µg/mL (≈ 66.2 µM), respectively.

With `Cc1ccc(-c2cc(-c3ccc(O)cc3)nc(N3CCCCC3)n2)cc1`, the MIC against Plasmodium falciparum stood at 2 µg/mL (≈ 5.79 µM). For the same molecule, in test [2], the MIC result is “inactive”.

As for `Oc1ccc(-c2cc(-c3ccccc3)nc(N3CCN(Cc4ccccc4)CC3)n2)cc1`, the results for the MIC (against Plasmodium falciparum; in test [1]) were 1 µg/mL (≈ 2.37 µM) and 25 µg/mL (≈ 59.2 µM), respectively.

Consider `COc1ccc(-c2cc(-c3ccc(O)cc3)nc(N3CCN(Cc4ccccc4)CC3)n2)cc1`, for which, in the test on Plasmodium falciparum, it took 1 µg/mL (≈ 2.21 µM) to inhibit growth (MIC). Moreover, the MIC entry in test [2] was “inactive”.

As to `COc1ccc(-c2cc(-c3ccc(O)cc3)nc(N)n2)cc1OC`, the MIC against Plasmodium falciparum is 10 µg/mL (≈ 30.9 µM); in test [1], 12.5 µg/mL (≈ 38.7 µM).

`COc1ccc(-c2cc(-c3ccc(O)cc3)nc(N3CCN(Cc4ccccc4)CC3)n2)cc1OC`: the MIC against Plasmodium falciparum came out at 0.5 µg/mL (≈ 1.04 µM). Moreover, in test [2], the MIC entry is “inactive”.

Turning to `COc1ccc(OC)c(-c2cc(-c3ccc(O)cc3)nc(N)n2)c1`, the MIC against Plasmodium falciparum was found to be 10 µg/mL (≈ 30.9 µM); in test [1], 25 µg/mL (≈ 77.3 µM).

In the test on Plasmodium falciparum, `Cc1ccc(-c2cc(-c3ccc(O)cc3)nc(N)n2)cc1` yielded an MIC of 50 µg/mL (≈ 180 µM). Besides, in test [2], the MIC entry is “inactive”.

`COc1ccc(-c2cc(-c3ccc(O)cc3)nc(N3CCCC3)n2)cc1` displayed an MIC in the test with Plasmodium falciparum of 1 µg/mL (≈ 2.88 µM). The MIC result in test [2] is “inactive”.

`COc1ccc(OC)c(-c2cc(-c3ccc(O)cc3)nc(N3CCN(c4ccccc4)CC3)n2)c1`: the MIC against Plasmodium falciparum was found to be 2 µg/mL (≈ 4.27 µM). For the same molecule, the MIC entry in test [2] was “inactive”.

For the molecule `Cc1ccc(-c2cc(-c3ccc(O)cc3)nc(N3CCN(c4ccccc4)CC3)n2)cc1`, the minimal inhibitory concentration (MIC) against Plasmodium falciparum came to 10 µg/mL (≈ 23.7 µM). In addition, the MIC result in test [2] is “inactive”.

For `COc1ccc(-c2cc(-c3ccc(O)cc3)nc(N3CCCCC3)n2)cc1`, the lowest concentration to inhibit growth against Plasmodium falciparum (MIC) was 0.5 µg/mL (≈ 1.38 µM). For the same molecule, the MIC entry in test [2] was “inactive”.

Regarding `Cc1ccc(-c2cc(-c3ccc(O)cc3)nc(N3CCN(Cc4ccccc4)CC3)n2)cc1`, in the test on Plasmodium falciparum, the MIC came to 2 µg/mL (≈ 4.58 µM). In addition, the MIC entry in test [2] is “inactive”.

For the molecule `Oc1ccc(-c2cc(-c3ccccc3)nc(N3CCCC3)n2)cc1`, the minimal inhibitory concentration (MIC) in the test with Plasmodium falciparum came out at 2 µg/mL (≈ 6.3 µM); in test [1], 25 µg/mL (≈ 78.8 µM).

As to `COc1ccc(OC)c(-c2cc(-c3ccc(O)cc3)nc(N3CCN(C)CC3)n2)c1`, the MIC in the test on Plasmodium falciparum is 0.25 µg/mL (≈ 0.615 µM); in test [1] it was 12.5 µg/mL (≈ 30.8 µM).

With `Cc1ccc(-c2cc(-c3ccc(O)cc3)nc(N3CCCC3)n2)cc1`, in the test on Plasmodium falciparum, it took 2 µg/mL (≈ 6.03 µM) to inhibit growth (MIC). In addition, the MIC result in test [2] was “inactive”.

As to `COc1ccc(OC)c(-c2cc(-c3ccc(O)cc3)nc(N3CCN(Cc4ccccc4)CC3)n2)c1`, the results for the minimum inhibitory concentration (MIC) (against Plasmodium falciparum; in test [1]) were 0.25 µg/mL (≈ 0.518 µM) and 25 µg/mL (≈ 51.8 µM), respectively.

In the case of `Oc1ccc(-c2cc(-c3ccccc3)nc(N3CCN(c4ccccc4)CC3)n2)cc1`, the minimum inhibitory concentration (MIC) in the test with Plasmodium falciparum is 10 µg/mL (≈ 24.5 µM); in test [1], 25 µg/mL (≈ 61.2 µM).

For `Oc1ccc(-c2cc(-c3ccccc3)nc(N3CCCCC3)n2)cc1`, the MIC was 2 µg/mL (≈ 6.03 µM) with Plasmodium falciparum and 25 µg/mL (≈ 75.4 µM) in test [1].

In turn, `COc1ccc(-c2cc(-c3ccc(O)cc3)nc(N3CCN(c4ccccc4)CC3)n2)cc1OC` showed a minimal inhibitory concentration (MIC) with Plasmodium falciparum of 1 µg/mL (≈ 2.13 µM). Moreover, the MIC entry in test [2] was “inactive”.

In turn, `COc1ccc(-c2cc(-c3ccc(O)cc3)nc(N3CCN(c4ccccc4)CC3)n2)cc1` returned an MIC against Plasmodium falciparum of 2 µg/mL (≈ 4.56 µM). In addition, the MIC result in test [2] was “inactive”.

With `COc1ccc(-c2cc(-c3ccc(O)cc3)nc(N3CCN(C)CC3)n2)cc1`, the MIC was 0.5 µg/mL (≈ 1.33 µM) against Plasmodium falciparum and 25 µg/mL (≈ 66.4 µM) in test [1].

Regarding `COc1ccc(-c2cc(-c3ccc(O)cc3)nc(N3CCN(C)CC3)n2)cc1OC`, the MIC with Plasmodium falciparum was determined as 0.25 µg/mL (≈ 0.615 µM); in test [1], 12.5 µg/mL (≈ 30.8 µM).

Regarding `CN1CCN(c2nc(-c3ccccc3)cc(-c3ccc(O)cc3)n2)CC1`, the figures for the MIC (against Plasmodium falciparum; in test [1]) were 0.5 µg/mL (≈ 1.44 µM) and 25 µg/mL (≈ 72.2 µM), respectively.
